Test results published in PubChem BioAssay (NCI).
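Results reflect a 48-hour exposure of cells in 96-well plates to compound at five concentrations. GI50 = concentration required for 50% inhibition of growth. TGI is the concentration that stops growth completely.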

Key:
Test in all cases: inhibition of tumour cell growth, NCI panel, 48 h
LOX IMVI melanoma = system: LOX IMVI melanoma
SN12C renal = system: SN12C renal
MCF7 breast = system: MCF7 breast
MOLT-4 leukemia = system: MOLT-4 leukemia
ACHN renal = system: ACHN renal
HOP-92 NSCLC = system: HOP-92 NSCLC
786-0 renal = system: 786-0 renal
OVCAR-4 ovarian = system: OVCAR-4 ovarian
SK-MEL-5 melanoma = system: SK-MEL-5 melanoma
PC-3 prostate = system: PC-3 prostate
NCI-H226 lung = system: NCI-H226 lung
KM12 colon = system: KM12 colon
SW-620 colon = system: SW-620 colon
BT-549 breast = system: BT-549 breast
SK-MEL-2 melanoma = system: SK-MEL-2 melanoma
IGROV1 ovarian = system: IGROV1 ovarian
NCI-H460 lung = system: NCI-H460 lung
MDA-MB-231 breast = system: MDA-MB-231 breast
MALME-3M melanoma = system: MALME-3M melanoma
SR leukemia = system: SR leukemia
UACC-257 melanoma = system: UACC-257 melanoma
T-47D breast = system: T-47D breast
K-562 leukemia = system: K-562 leukemia
HT29 colon = system: HT29 colon
UO-31 renal = system: UO-31 renal
NCI/ADR-RES ovarian = system: NCI/ADR-RES ovarian
OVCAR-5 ovarian = system: OVCAR-5 ovarian
CCRF-CEM leukemia = system: CCRF-CEM leukemia
CAKI-1 renal = system: CAKI-1 renal
SF-539 CNS = system: SF-539 CNS
HL-60(TB) leukemia = system: HL-60(TB) leukemia
U251 CNS = system: U251 CNS
A549 NSCLC = system: A549 NSCLC
SK-OV-3 ovarian = system: SK-OV-3 ovarian
SF-268 CNS = system: SF-268 CNS
UACC-62 melanoma = system: UACC-62 melanoma
SNB-19 CNS = system: SNB-19 CNS
HOP-62 NSCLC = system: HOP-62 NSCLC
DU-145 prostate = system: DU-145 prostate
HS 578T breast = system: HS 578T breast
HCT-116 colon = system: HCT-116 colon
NCI-H522 lung = system: NCI-H522 lung
HCC-2998 colon = system: HCC-2998 colon
SNB-75 CNS = system: SNB-75 CNS
HCT-15 colon = system: HCT-15 colon
NCI-H23 lung = system: NCI-H23 lung
TK-10 renal = system: TK-10 renal
OVCAR-8 ovarian = system: OVCAR-8 ovarian
A498 renal = system: A498 renal
SK-MEL-28 melanoma = system: SK-MEL-28 melanoma
RPMI-8226 leukemia = system: RPMI-8226 leukemia
RXF 393 renal = system: RXF 393 renal
SF-295 CNS = system: SF-295 CNS
COLO 205 colon = system: COLO 205 colon
OVCAR-3 ovarian = system: OVCAR-3 ovarian
EKVX NSCLC = system: EKVX NSCLC
MDA-MB-435 = system: MDA-MB-435
M14 melanoma = system: M14 melanoma

## COc1ccc2c(=O)cc(C(Cl)(Cl)Cl)oc2c1
LOX IMVI melanoma
  GI50: 0.173 µM
  TGI: 5.03 µM
SN12C renal
  GI50: 0.519 µM
  TGI: 11.9 µM
MCF7 breast
  GI50: 0.262 µM
  TGI: 14.6 µM
MOLT-4 leukemia
  GI50: 0.302 µM
  TGI: 4.44 µM
ACHN renal
  GI50: 0.412 µM
  TGI: 13.8 µM
HOP-92 NSCLC
  GI50: 0.361 µM
  TGI: 23.3 µM
786-0 renal
  GI50: 0.324 µM
  TGI: 14.1 µM
OVCAR-4 ovarian
  GI50: 0.423 µM
  TGI: 30.7 µM
SK-MEL-5 melanoma
  GI50: 0.278 µM
  TGI: 0.833 µM
PC-3 prostate
  GI50: 0.39 µM
  TGI: 18.9 µM
NCI-H226 lung
  GI50: 14.8 µM
  TGI: 35.8 µM
KM12 colon
  GI50: 0.32 µM
  TGI: 12.5 µM
SW-620 colon
  GI50: 0.237 µM
  TGI: 14.5 µM
BT-549 breast
  GI50: 0.336 µM
  TGI: 10.6 µM
SK-MEL-2 melanoma
  GI50: 0.488 µM
  TGI: 26.4 µM
IGROV1 ovarian
  GI50: 0.633 µM
  TGI: 21.3 µM
NCI-H460 lung
  GI50: 0.364 µM
  TGI: 8.63 µM
MDA-MB-231 breast
  GI50: 0.333 µM
  TGI: 14.9 µM
MALME-3M melanoma
  GI50: 5.71 µM
  TGI: 35.6 µM
SR leukemia
  GI50: 0.058 µM
  TGI: 91.5 µM
UACC-257 melanoma
  GI50: 12 µM
  TGI: 41.6 µM
T-47D breast
  GI50: 12.2 µM
  TGI: 55.3 µM
K-562 leukemia
  GI50: 0.0525 µM
  TGI: > 100 µM
HT29 colon
  GI50: 0.345 µM
  TGI: 10.9 µM
UO-31 renal
  GI50: 0.637 µM
  TGI: 15.7 µM
NCI/ADR-RES ovarian
  GI50: 0.296 µM
  TGI: 14.2 µM
OVCAR-5 ovarian
  GI50: 0.385 µM
  TGI: 15.8 µM
CCRF-CEM leukemia
  GI50: 0.309 µM
CAKI-1 renal
  GI50: 0.376 µM
  TGI: 14.6 µM
SF-539 CNS
  GI50: 0.208 µM
  TGI: 0.583 µM
HL-60(TB) leukemia
  GI50: 0.269 µM
  TGI: 0.836 µM
U251 CNS
  GI50: 1.14 µM
  TGI: 11.1 µM
A549 NSCLC
  GI50: 0.444 µM
  TGI: 15.5 µM
SK-OV-3 ovarian
  GI50: 0.511 µM
  TGI: 31.5 µM
SF-268 CNS
  GI50: 0.377 µM
  TGI: 15.6 µM
UACC-62 melanoma
  GI50: 0.438 µM
  TGI: 17.5 µM
SNB-19 CNS
  GI50: 3.77 µM
  TGI: 48.1 µM
HOP-62 NSCLC
  GI50: 1.04 µM
  TGI: 27.6 µM
DU-145 prostate
  GI50: 0.309 µM
  TGI: 0.971 µM
HS 578T breast
  GI50: 0.979 µM
  TGI: 48.6 µM
HCT-116 colon
  GI50: 0.299 µM
  TGI: 14.3 µM
NCI-H522 lung
  GI50: 0.228 µM
  TGI: 0.683 µM
HCC-2998 colon
  GI50: 0.4 µM
  TGI: 11.3 µM
SNB-75 CNS
  GI50: 0.327 µM
  TGI: 15.1 µM
HCT-15 colon
  GI50: 0.24 µM
  TGI: 14.2 µM
NCI-H23 lung
  GI50: 0.409 µM
  TGI: 19.3 µM
TK-10 renal
  GI50: 8.36 µM
  TGI: 40.4 µM
OVCAR-8 ovarian
  GI50: 0.338 µM
  TGI: 10.4 µM
A498 renal
  GI50: 0.213 µM
  TGI: 3.36 µM
SK-MEL-28 melanoma
  GI50: 0.632 µM
  TGI: 23.2 µM
RPMI-8226 leukemia
  GI50: 0.389 µM
  TGI: 3.82 µM
RXF 393 renal
  GI50: 0.676 µM
  TGI: 20.4 µM
SF-295 CNS
  GI50: 1.27 µM
  TGI: 13 µM

## COc1cc(C2SCC(=O)N2c2ncc(C)s2)cc(OC)c1OC (stereo not given)
LOX IMVI melanoma
  GI50: 31.2 µM
  TGI: > 50 µM
SN12C renal
  GI50: 13.3 µM
  TGI: > 50 µM
MCF7 breast
  GI50: > 50 µM
  TGI: > 50 µM
MOLT-4 leukemia
  GI50: 22.5 µM
  TGI: > 50 µM
ACHN renal
  GI50: 30.8 µM
  TGI: > 50 µM
786-0 renal
  GI50: > 50 µM
  TGI: > 50 µM
OVCAR-4 ovarian
  GI50: > 50 µM
  TGI: > 50 µM
SK-MEL-5 melanoma
  GI50: 17.3 µM
  TGI: > 50 µM
PC-3 prostate
  GI50: 31.4 µM
  TGI: > 50 µM
NCI-H226 lung
  GI50: > 50 µM
  TGI: > 50 µM
KM12 colon
  GI50: 18.7 µM
  TGI: > 50 µM
SW-620 colon
  GI50: 21.4 µM
  TGI: > 50 µM
BT-549 breast
  GI50: 37.5 µM
  TGI: > 50 µM
SK-MEL-2 melanoma
  GI50: > 50 µM
  TGI: > 50 µM
IGROV1 ovarian
  GI50: > 50 µM
  TGI: > 50 µM
COLO 205 colon
  GI50: 17.5 µM
  TGI: > 50 µM
NCI-H460 lung
  GI50: 25.7 µM
  TGI: > 50 µM
SR leukemia
  GI50: 3.06 µM
  TGI: > 50 µM
UACC-257 melanoma
  GI50: > 50 µM
  TGI: > 50 µM
K-562 leukemia
  GI50: 23.5 µM
  TGI: > 50 µM
HT29 colon
  GI50: 23.3 µM
  TGI: > 50 µM
UO-31 renal
  GI50: > 50 µM
  TGI: > 50 µM
OVCAR-3 ovarian
  GI50: 14.3 µM
  TGI: 44.8 µM
NCI/ADR-RES ovarian
  GI50: 29 µM
  TGI: > 50 µM
OVCAR-5 ovarian
  GI50: > 50 µM
  TGI: > 50 µM
CAKI-1 renal
  GI50: 12 µM
  TGI: > 50 µM
EKVX NSCLC
  GI50: 43.9 µM
  TGI: > 50 µM
SF-539 CNS
  GI50: 13.5 µM
  TGI: 43.9 µM
HL-60(TB) leukemia
  GI50: 28.7 µM
  TGI: > 50 µM
U251 CNS
  GI50: 18.1 µM
  TGI: > 50 µM
A549 NSCLC
  GI50: 45.4 µM
  TGI: > 50 µM
MDA-MB-435
  GI50: 2.91 µM
  TGI: 24.9 µM
SF-268 CNS
  GI50: > 50 µM
  TGI: > 50 µM
UACC-62 melanoma
  GI50: 12.5 µM
  TGI: 49.4 µM
SNB-19 CNS
  GI50: 34.5 µM
  TGI: > 50 µM
DU-145 prostate
  GI50: 19.6 µM
  TGI: > 50 µM
HS 578T breast
  GI50: 44.6 µM
  TGI: > 50 µM
HCT-116 colon
  GI50: 27.5 µM
  TGI: > 50 µM
NCI-H522 lung
  GI50: > 50 µM
  TGI: > 50 µM
SNB-75 CNS
  GI50: 14.4 µM
  TGI: > 50 µM
HCT-15 colon
  GI50: 16.3 µM
  TGI: > 50 µM
NCI-H23 lung
  GI50: 30.6 µM
  TGI: > 50 µM
TK-10 renal
  GI50: 21.4 µM
  TGI: > 50 µM
OVCAR-8 ovarian
  GI50: 35.4 µM
  TGI: > 50 µM
M14 melanoma
  GI50: 21 µM
  TGI: > 50 µM
A498 renal
  GI50: 0.366 µM
  TGI: > 50 µM
SK-MEL-28 melanoma
  GI50: > 50 µM
  TGI: > 50 µM
RPMI-8226 leukemia
  GI50: 17.2 µM
  TGI: > 50 µM
RXF 393 renal
  GI50: 27.5 µM
  TGI: > 50 µM
SF-295 CNS
  GI50: 9.23 µM
  TGI: > 50 µM
